Assay results reported in patent US3985766A, “Bis-imidazolyl-bisphenylmethane and salts thereof” (Bayer Aktiengesellschaft, priority 1968, dated 1976).

Test system: Trichophyton mentagrophytes
Test: effectiveness in vitro against human-pathogenic fungi (fungistatic)
Assay type: cell-based
Settings: Milieu d'epreuve according to Sabouraud, 28° C
Experimental: I. effectiveness in vitro against human-pathogenic fungi
1. Trichophyton mentagrophytes:
The test medium was Milieu d'epreuve according to Sabouraud, incubation temperature: 28° C.

Which MIC does the source give for `c1ccc(C(c2ccccc2)(n2ccnc2)n2ccnc2)cc1` [compound a), bis-imidazolyl-bis-phenylmethane] here?
The MIC was < 4 mg/L.

With `Clc1ccc(C(c2ccccc2)(n2ccnc2)n2ccnc2)cc1` [compound b), bis-imidazolyl-4-chlorophenyl-phenylmethane] as the compound, how does the MIC read?
Its MIC is < 4 mg/L.

How did the MIC turn out when `Fc1ccc(C(c2ccccc2)(n2ccnc2)n2ccnc2)cc1` [compound c), bis-imidazolyl-4-fluorophenyl-phenylmethane] was run?
The MIC was < 4 mg/L.

`Fc1ccc(C(c2ccccc2F)(n2ccnc2)n2ccnc2)cc1` [compound d), bis-imidazolyl-2,4'-difluoro-diphenylmethane] was tested. Which MIC did it give?
The MIC was < 4 mg/L.

How did the MIC turn out when `Clc1ccccc1C(c1ccccc1)(n1ccnc1)n1ccnc1` [compound e), bis-imidazolyl-2-chlorophenyl-phenylmethane] was run?
The MIC was < 4 mg/L.

How did the MIC turn out when `Clc1cccc(C(c2ccccc2)(n2ccnc2)n2ccnc2)c1` [compound f), bis-imidazolyl-3-chlorophenyl-phenylmethane] was run?
Its MIC is < 4 mg/L.

Which MIC does the source give for `N#Cc1ccc(C(c2ccccc2)(n2ccnc2)n2ccnc2)cc1` [compound g), bis-imidazolyl-4-cyanophenyl-phenylmethane] here?
Its MIC is < 40 mg/L.
